Experimental data reported in patent US6653478B2, “Substituted benzimidazol-2-ones as vasopressin receptor antagonists and neuropeptide Y modulators” (Ortho-McNeil Pharmaceutical, Inc., priority 2000, dated 2003).
Counter-ions that a name gives are not always drawn.

How the values were obtained:
human V1b receptor [1] = target: T1, human V1b receptor (Homo sapiens, UniProt P47901); experiment: V1b binding assay (3H-AVP displacement, HEK-293 membranes); design: expressed in transfected cells; host or cells: HEK-293 (membranes); details: for inhibition at 10 µM: 10 μM compound, read-out: V1b % Inh @10
T1 sequence (P47901 1-424): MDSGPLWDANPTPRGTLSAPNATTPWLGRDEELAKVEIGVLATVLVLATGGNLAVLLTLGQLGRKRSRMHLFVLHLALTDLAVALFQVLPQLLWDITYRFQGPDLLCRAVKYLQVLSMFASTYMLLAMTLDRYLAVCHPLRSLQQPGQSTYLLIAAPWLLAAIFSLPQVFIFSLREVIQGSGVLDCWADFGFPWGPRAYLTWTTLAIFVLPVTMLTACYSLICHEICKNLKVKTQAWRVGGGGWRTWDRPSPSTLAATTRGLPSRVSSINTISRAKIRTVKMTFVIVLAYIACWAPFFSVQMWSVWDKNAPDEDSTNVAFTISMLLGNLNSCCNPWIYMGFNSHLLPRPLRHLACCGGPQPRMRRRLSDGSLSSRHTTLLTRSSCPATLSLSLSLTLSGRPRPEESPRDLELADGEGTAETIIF
Procedure, shortened: (§1)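 Each well: membranes, test compound (from 10% DMSO working stock), 3H-AVP. Buffer pH 7.5 with 0.1% BSA and protease inhibitors; 1 h, room temperature. Non-specific binding: 1.25 μM AVP. Filter, wash, count.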

human V2 receptor [2] = target: T2, human V2 receptor (Homo sapiens, UniProt P30518); experiment: V2 binding assay (3H-AVP displacement, HEK-293 membranes); design: expressed in transfected cells; host or cells: HEK-293 (membranes); details: for inhibition at 1 µM: 1.0 μM compound, read-out: V2@1.0, % Inh; for inhibition at 10 µM: 10 μM compound, read-out: V2 % Inh @10
T2 sequence (P30518 whole entry): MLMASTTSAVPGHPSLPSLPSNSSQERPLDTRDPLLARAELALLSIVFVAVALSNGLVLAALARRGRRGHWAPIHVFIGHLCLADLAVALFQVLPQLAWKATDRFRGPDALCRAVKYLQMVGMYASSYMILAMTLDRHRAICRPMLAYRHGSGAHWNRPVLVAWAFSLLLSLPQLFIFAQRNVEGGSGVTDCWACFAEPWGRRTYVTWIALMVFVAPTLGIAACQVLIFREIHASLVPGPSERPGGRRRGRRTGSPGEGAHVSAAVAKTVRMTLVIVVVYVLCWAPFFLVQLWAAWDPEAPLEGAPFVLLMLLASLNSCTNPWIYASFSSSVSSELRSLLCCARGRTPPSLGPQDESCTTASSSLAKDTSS
Procedure, shortened: as §1

NPY2 receptors = target: T3, NPY2 receptors (Homo sapiens, UniProt P49146); experiment: Neuropeptide Y receptor binding assay (125I-PYY, KAN-TS cell membranes); details: 10 μM compound; read-out: NPY-2@10, % Inh
T3 construct: Cell Membranes from KAN-TS cells having NPY2 receptors; endogenous in cells; host or cells: KAN-TS cells (membranes)
T3 sequence (P49146 1-381): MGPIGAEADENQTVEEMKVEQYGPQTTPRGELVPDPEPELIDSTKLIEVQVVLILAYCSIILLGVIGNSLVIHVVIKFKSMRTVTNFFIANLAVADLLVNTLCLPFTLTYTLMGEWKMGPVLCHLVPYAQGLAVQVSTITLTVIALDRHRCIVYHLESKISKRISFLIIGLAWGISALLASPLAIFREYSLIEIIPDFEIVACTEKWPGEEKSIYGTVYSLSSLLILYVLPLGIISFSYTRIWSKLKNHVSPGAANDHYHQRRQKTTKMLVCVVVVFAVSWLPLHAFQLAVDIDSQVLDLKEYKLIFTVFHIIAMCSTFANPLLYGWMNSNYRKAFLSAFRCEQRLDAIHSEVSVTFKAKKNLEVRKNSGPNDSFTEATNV
Procedure, shortened: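 Membranes from KAN-TS cells competed with 125I-PYY in binding buffer containing BSA, test compound at 10 μM final, 1 hr at room temperature. Nonspecific binding defined with 1 μM PYY final. Tubes centrifuged, washed with PBS and bound radioactivity gamma-counted.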

human V1a receptor [3] = target: T4, human V1a receptor (Homo sapiens, UniProt P37288); experiment: V1a binding assay (3H-AVP displacement, HEK-293 membranes); design: expressed in transfected cells; host or cells: HEK-293 (membranes); details: for inhibition at 1 µM: 1.0 μM compound, read-out: V1a@1.0, % Inh
T4 sequence (P37288 whole entry): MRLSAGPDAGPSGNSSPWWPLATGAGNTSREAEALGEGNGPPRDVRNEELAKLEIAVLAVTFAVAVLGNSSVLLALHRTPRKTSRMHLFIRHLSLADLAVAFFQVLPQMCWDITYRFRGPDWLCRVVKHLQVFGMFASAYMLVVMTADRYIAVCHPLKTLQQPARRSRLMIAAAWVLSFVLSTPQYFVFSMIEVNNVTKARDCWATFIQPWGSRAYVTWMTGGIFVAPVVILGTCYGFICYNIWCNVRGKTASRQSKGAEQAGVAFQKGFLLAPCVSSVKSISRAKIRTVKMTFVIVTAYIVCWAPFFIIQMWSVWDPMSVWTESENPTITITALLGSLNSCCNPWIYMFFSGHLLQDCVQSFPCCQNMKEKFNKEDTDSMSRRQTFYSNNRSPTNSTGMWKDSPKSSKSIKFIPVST
Procedure, shortened: as §1

human V1b receptor [4] = target: T1, human V1b receptor; experiment: V1b functional assay, intracellular calcium mobilization in transfected HEK-293 cells (FLIPR); format: cell-based; design: expressed in transfected cells; host or cells: HEK-293; details: for inhibition at 30 µM: HEK293, 30 μM compound, read-out: Cell-Based Functional activity V1b % Inh. @ 30; for IC50: challenge 0.5 nM AVP, read-out: Cell-Based Functional activity V1b IC50
Protocol: (§2) V1a, V1b or V2 Functional Assay
(§3) HEK-293 cells were grown in DMEM media supplemented with 10% FBS and glutamine (Gibco BRL, Grand Island, N.Y.). Once transfected the cells were passed biweekly by trypsinization and seeded into 96 well plates at 33,000 cells per well. HEK-293 were transfected with human V1a, V1b or V2 DNA using DMRIE-C reagent from Life Technologies, Inc., Grand Island, N.Y. Cells were tested for their responsiveness to vasopressin 48 hours after transfection. Stable lines were generated by selecting cells grown in culture media containing geneticin (500 μg/ml, Life Technologies).
(§4) Intracellular calcium mobilization was measured in HEK-293 cells transfected to express either human V1a, oxytocin or V1b receptors. Cells were plated into black 96-well Packard Clear-View plates 4 to 7 days prior to use. The cells were loaded with fluo-3 AM (Molecular Probes, Inc., Eugene, Oreg.) in buffer (25 mM Hepes, 125 mM NaCl, 1 gm/l glucose, 0.1% BSA, 5 mM KCl, 0.5 mM CaCl2, 0.5 mM MgCl2, pH 7.45) containing Pluronic (Molecular Probes) Cells were incubated with 5 μM fluo-3 AM for 1 hour shielded from light at room temperature. Intracellular fluorescence was measured using FLIPR (fluorometric imaging plate reader; Molecular Devices, Inc., Sunnyvale, Calif.). The FLIPR protocol called for images to be collected at one second intervals with 50 μl of the test compound added after the initial 10 images. An additional 70 images were then taken to detect any compound agonistic activity. FLIPR then added 50 μl of agonist peptide and collected a final 40 images for quantitating compound antagonistic activity. V1a- and V1b-expressing HEK cells were challenged with 1 nM and 0.5 nM AVP, respectively. Oxytocin-expressing HEK cells were challenged with 0.5 nM oxytocin (Peninsula Labs).
(§5) The data from the cAMP accumulation and the calcium mobilization assays are expressed as IC50 values as determined from dose response curves.

human V1a receptor [5] = target: T4, human V1a receptor; experiment: V1a functional assay, intracellular calcium mobilization in transfected HEK-293 cells (FLIPR); design: expressed in transfected cells; host or cells: HEK-293; details: challenge 1 nM AVP; read-out: Cell-Based Functional activity V1a IC50
Protocol: as §2, §3, §4, §5

human V2 receptor [6] = target: T2, human V2 receptor; experiment: V2 functional assay, cAMP accumulation in transfected HEK-293 cells; format: cell-based; design: expressed in transfected cells; host or cells: HEK-293; details: HEK293; 30 μM compound; read-out: Cell-Based Functional activity V2 % Inh. @ 30
Protocol: as §2, §3
The accumulation of cAMP was measured in transfected HEK-293 expressing the human V2 receptor. The cells were cultured 4-7 days in 96-well plates. On the day of assay, cells were washed twice in assay media (DMEM/F12 containing 0.1% BSA). The cells were treated with the test compound for 5 minutes and then given AVP (1 nM) in assay media containing 1 mM isobutylmethylxanthine. After 5 minutes, 0.5 N HCl was added to disrupt the cells and solubilize cAMP. The cAMP content of 20 μl of the cell lysate in each well was measured using cAMP Flashplates (NEN Life Sciences). Data are expressed as pmol cAMP/well. While the assay is optimized to detect and quantitate antagonistic activity, agonistic activity would also be apparent at the higher concentrations of test compounds.
as §5

human V1a receptor [7] = target: T4, human V1a receptor; design: expressed in transfected cells; host or cells: HEK-293; details: stated in literature; cited from earlier work
V1a = V1a (Rattus norvegicus, UniProt P30560); details: stated in literature; cited from earlier work
Sequence of V1a (P30560 whole entry): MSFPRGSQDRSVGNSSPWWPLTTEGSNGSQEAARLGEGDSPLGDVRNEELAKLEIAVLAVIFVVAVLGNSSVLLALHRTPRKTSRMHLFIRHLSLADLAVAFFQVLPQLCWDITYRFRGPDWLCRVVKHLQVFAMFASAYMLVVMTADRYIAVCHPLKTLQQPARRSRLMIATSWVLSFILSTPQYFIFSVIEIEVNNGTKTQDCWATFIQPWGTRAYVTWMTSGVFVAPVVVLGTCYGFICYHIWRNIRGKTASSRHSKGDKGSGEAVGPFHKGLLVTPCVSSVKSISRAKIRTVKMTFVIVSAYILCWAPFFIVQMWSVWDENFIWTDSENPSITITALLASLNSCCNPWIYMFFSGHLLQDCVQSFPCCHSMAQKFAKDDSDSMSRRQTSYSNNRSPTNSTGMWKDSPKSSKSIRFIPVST

SMILES | melting point | inhibition at 10 µM (human V1b receptor [1]) | inhibition at 1 µM (human V2 receptor [2]) | inhibition at 10 µM (NPY2 receptors) | inhibition at 1 µM (human V1a receptor [3]) | IC50 (human V1a receptor [3]) | IC50 (human V1a receptor [5]) | other results
NCCCn1c(=O)n(C2CCN(C(=S)NC(c3ccccc3)c3ccccc3)CC2)c2ccccc21 (as salt: hydrochloride) [Compound 55, 1-[(N1-Piperidinocarbothioyldiphenylmethylamino)-4-yl]-3-(3-aminopropyl)-1,3-dihydrobenzimidazol-2-one Monohydrochloride] | 189 to 190 °C |  |  |  |  |  |  | 
O=c1[nH]c2ccccc2n1C1CCN(C(=S)NCCc2ccc(Cl)cc2)CC1 [Compound 2] | 234 to 236 °C | 0% | 7% | 1% | 21% |  |  | 
O=c1[nH]c2ccccc2n1C1CCN(C(=S)Nc2ccccc2)CC1 [Compound 3] | 250 to 252 °C | 0% | 7% | 13% | 0% |  |  | 
COc1ccc(NC(=S)N2CCC(n3c(=O)[nH]c4ccccc43)CC2)cc1 [Compound 5] | 238 to 243 °C | 8% | 34% | 14% | 38% |  |  | 
O=c1[nH]c2ccccc2n1C1CCN(C(=S)NCc2ccccc2Cl)CC1 [Compound 12] | 181 to 184 °C | 0% |  | 21% |  | 2500 nM |  | inhibition at 10 µM (human V2 receptor [2]): 5%
O=c1[nH]c2ccccc2n1C1CCN(C(=S)NCC(c2ccccc2)c2ccccc2)CC1 [Compound 13] | 230 to 233 °C | 1% |  | 22% |  | 1200 nM |  | inhibition at 10 µM (human V2 receptor [2]): 4%
COC(=O)[C@@H](Cc1ccccc1)NC(=S)N1CCC(n2c(=O)n(CCCNC(=N)N)c3ccccc32)CC1 [Compound 58] |  |  |  | 2% | 52% |  | 1430 nM | inhibition at 30 µM (human V1b receptor [4]): 0%; inhibition at 30 µM (human V2 receptor [6]): 0%
NCCCn1c(=O)n(C2CCN(C(=O)Nc3ccccc3-c3ccccc3)CC2)c2ccccc21 [Compound 62, 1-[(N1-Piperidinocarboyl-2-biphenylylamino)-4-yl]-3-(3-aminopropyl)-1,3-dihydro-benzimidazol-2-one hydrochloride] |  | 35% | 0% | 50% |  | 200 nM | 690 nM | inhibition at 30 µM (human V1b receptor [4]): 0%
NCCn1c(=O)n(C2CCN(C(=S)NC(c3ccccc3)c3ccccc3)CC2)c2ccccc21 [Compound 63, 1-[(N1-Piperidinocarbothioyldiphenylmethylamino)-4-yl]-3-(2-aminoethyl)-1,3-dihydrobenzimidazol-2-one Hydrochloride] |  | 74% | 42% | 94% |  | 50 nM | 310 nM | IC50 (human V1b receptor [1]): 4700 nM; IC50 (human V1b receptor [4]): 8060 nM
NCCCCn1c(=O)n(C2CCN(C(=S)NC(c3ccccc3)c3ccccc3)CC2)c2ccccc21 [Compound 64, 1-[(N1-Piperidinocarbothioyldiphenylmethylamino)-4-yl]-3-(4-aminobutyl)-1,3-dihydro-benzimidazol-2-one] |  |  |  | 93% |  | 24 nM | 140 nM | IC50 (human V1b receptor [1]): 5400 nM; IC50 (human V2 receptor [2]): 560 nM; IC50 (human V1b receptor [4]): 12100 nM
NCCCCn1c(=O)n(C2CCN(C(=S)NC(c3ccccc3)c3ccc(Cl)cc3)CC2)c2ccccc21 (stereo not shown) [Compound 65, 1-[(N1-Piperidinocarbothioyl-4-chlorodiphenylmethylamino)-4-yl]-3-(4-aminobutyl)-1,3-dihydro-benzimidazol-2-one] |  | 51% |  | 51% |  | 77 nM | 460 nM | IC50 (human V2 receptor [2]): 500 nM; IC50 (human V1b receptor [4]): 21000 nM
CC(=O)NCCCOc1ccc(C(=O)N2CCC(N3C(=O)CCc4ccccc43)CC2)cc1 [OPC 21268] |  |  |  |  |  |  |  | activity when tested for binding to human V1a receptor (human V1a receptor [7]): no activity; activity in rat (V1a): only active in rat
